The text below walks through data of EP0873990A1, “BENZOIC ACID COMPOUNDS AND MEDICINAL USE THEREOF” (YOSHITOMI PHARMACEUTICAL INDUSTRIES, LTD., priority 1995, dated 1997).

Where a name gives a salt, the structure may show the parent alone. Read-outs that look alike come from different tables or passages of the source.

Experiment [1] has as its target T1, 5-HT4 receptor (Cavia porcellus, UniProt O70528).
T1 construct: crude synapse membrane sample was prepared from guinea pig striatum; from tissue; host or cells: guinea pig striatum, crude synaptic membranes
In words: biochemical. Type of experiment: binding, guinea pig.
Protocol: Specifically, crude synapse membrane sample was prepared from guinea pig striatum, suspended in 50 mM HEPES buffer (pH 7.4) and used for testing. The test compound having several different concentrations and [3H]GR113808 (final concentration 0.1 nM) were added to this suspension and allowed to react at 37°C. Thirty minutes later, the reaction mixture was filtered by suction with cell harvester. The filter was washed with 50 mM HEPES buffer, and the radioactivity on the filter was counted by liquid scintillation counter. The non-specific binding was determined in the presence of 1 µM GR113808. The concentration of the test compound necessary for 50% inhibition (IC50) was determined from a graph and converted to a Ki value.

Experiment [2] deals with T2, 5-HT3 receptor (Rattus norvegicus, UniProt P35563).
T2 construct: crude synapse membrane sample was prepared from rat cerebral cortex; from tissue; host or cells: rat cerebral cortex, crude synaptic membranes
T2 sequence (P35563 24-483): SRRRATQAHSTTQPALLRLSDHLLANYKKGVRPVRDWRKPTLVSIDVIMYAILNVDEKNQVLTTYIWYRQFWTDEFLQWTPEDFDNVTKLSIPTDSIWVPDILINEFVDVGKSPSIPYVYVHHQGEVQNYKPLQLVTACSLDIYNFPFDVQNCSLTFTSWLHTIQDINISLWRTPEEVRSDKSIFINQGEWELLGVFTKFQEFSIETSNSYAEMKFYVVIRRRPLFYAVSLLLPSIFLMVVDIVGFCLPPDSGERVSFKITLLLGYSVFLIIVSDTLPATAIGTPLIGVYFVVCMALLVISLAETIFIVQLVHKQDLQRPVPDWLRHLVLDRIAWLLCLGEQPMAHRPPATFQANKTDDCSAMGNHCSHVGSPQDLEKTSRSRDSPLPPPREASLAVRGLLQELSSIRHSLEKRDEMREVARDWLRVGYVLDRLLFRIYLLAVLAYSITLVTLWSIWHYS
In words: 5-HT3 receptor binding test ([3H]Granisetron, crude synapse membrane from cerebral cortex). As to conditions: for Ki: IC50 converted to Ki, read-out: Affinity for receptor (Ki value, nM) 5-HT3.
Protocol: 148, pp. 297-299 (1988)], a specific 5-HT3 receptor binding test was run using, as a tracer ligand, endo-1-methyl-N-(9-methyl-9-azabicyclo[3.3.1]non-3-yl)-1H-indazole-3-carboxamide substituted by tritium (hereinafter to be referred to as [3H]Granisetron). Specifically, crude synapse membrane sample was prepared from rat cerebral cortex, suspended in 50 mM HEPES buffer (pH 7.4) and used for testing. The test compound having several different concentrations and [3H]Granisetron (final concentration 1.0 nM) were added to this suspension and allowed to react at 25°C. Thirty minutes later, the reaction mixture was filtered by suction with cell harvester. The filter was washed with 50 mM Tris buffer (pH 7.4), and the radioactivity on the filter was counted using liquid scintillation counter or β-plate. The non-specific binding was determined in the presence of 1 µM Tropisetron. The concentration of the test compound necessary for 50% inhibition (IC50) was determined from a graph and converted to a Ki value.

The mark [3] stands for this setting: [3H]GR113808 0.1 nM, guinea pig striatum membranes, 37°C, 30 min, IC50 converted to Ki, read-out: Affinity for receptor (Ki value, nM) 5-HT4.
The mark [4] stands for this setting: values marked * are IC50, [3H]Granisetron 1.0 nM, rat cerebral cortex membranes, 25°C, 30 min, read-out: Affinity for receptor 5-HT3 (∗ shows IC50).
The mark [5] stands for this setting: [3H]Granisetron 1.0 nM, rat cerebral cortex membranes, 25°C, 30 min.

As a reminder, the Ki is a measure of affinity in units of concentration, obtained from inhibition or displacement. A word on the IC50: it is the concentration needed to halve the response being measured.

T1 sequence (O70528 whole entry): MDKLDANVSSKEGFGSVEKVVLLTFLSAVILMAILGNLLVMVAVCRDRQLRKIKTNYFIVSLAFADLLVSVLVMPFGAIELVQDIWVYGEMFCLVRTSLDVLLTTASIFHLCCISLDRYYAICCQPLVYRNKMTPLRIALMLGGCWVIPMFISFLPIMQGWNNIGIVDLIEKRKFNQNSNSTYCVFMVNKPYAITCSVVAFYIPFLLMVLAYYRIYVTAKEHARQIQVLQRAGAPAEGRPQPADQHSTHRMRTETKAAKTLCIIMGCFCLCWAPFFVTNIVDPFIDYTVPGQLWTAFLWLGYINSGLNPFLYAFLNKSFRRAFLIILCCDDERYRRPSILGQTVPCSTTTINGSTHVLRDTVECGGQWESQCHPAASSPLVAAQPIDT

For `COc1ccc(C(=O)CCCCCN2CCC(CNC(=O)c3cc(Cl)c(N)cc3OC)CC2)cc1F` [Example 74, 4-amino-5-chloro-N-((1-(6-(3-fluoro-4-methoxyphenyl)-6-oxohexyl)piperidin-4-yl)methyl)-2-methoxybenzamide], in experiment [1] (setting [3]), the inhibition constant (Ki) stood at 5.1 nM. In experiment [2] (setting [4]), the IC50 was above 1000 nM.

Take `CCCN(CCCCCN1CCC(CNC(=O)c2cc(Cl)c(N)cc2OC)CC1)Cc1ccccc1` [Example 33, 4-amino-5-chloro-2-methoxy-N-((1-(5-(N-n-propyl-N-benzylamino)pentyl)piperidin-4-yl)methyl)benzamide]: in experiment [1] (setting [3]), the Ki came to 0.84 nM. Moreover, the IC50 in experiment [2] (setting [4]) is above 1000 nM.

Take `COc1cc(N)c(Cl)cc1C(=O)NCC1CCN(CCCCCC(=O)c2ccc(O)cc2)CC1` [Example 75, 4-amino-5-chloro-N-((1-(6-(4-hydroxyphenyl)-6-oxohexyl)piperidin-4-yl)methyl)-2-methoxybenzamide]: in experiment [1] (setting [3]), the Ki came out at 1.5 nM. In experiment [2] (setting [4]), the IC50 was above 1000 nM.

For `COc1cc(N)c(Cl)cc1C(=O)NCC1CCN(CCCCCS(=O)(=O)c2ccccc2)CC1` [Example 84, 4-amino-5-chloro-2-methoxy-N-((1-(5-phenylsulfonylpentyl)piperidin-4-yl)methyl)benzamide hydrochloride], the inhibitory constant (Ki) in experiment [1] (setting [3]) is 1.4 nM. For the same compound, the IC50 in experiment [2] (setting [4]) was above 1000 nM.

As for `COc1cc(N)c(Cl)cc1C(=O)NCC1CCN(CCCCCCC(=O)c2ccccc2)CC1` [Example 58, 4-amino-5-chloro-2-methoxy-N-((1-(7-oxo-7-phenylheptyl)piperidin-4-yl)methyl)benzamide], the inhibition constant Ki in experiment [1] (setting [3]) came out at 1.5 nM. For the same compound, the IC50 in experiment [2] (setting [4]) was above 1000 nM.

Take `CCN(CCCCCN1CCC(CNC(=O)c2cc(Cl)c(N)cc2OC)CC1)Cc1ccc(F)cc1` [Example 25, 4-amino-5-chloro-N-((1-(5-(N-ethyl-N-(4-fluorobenzyl)amino)pentyl)piperidin-4-yl)methyl)-2-methoxybenzamide]: the inhibition constant (Ki) in experiment [1] (setting [3]) amounted to 0.94 nM. Also, in experiment [2] (setting [4]), the IC50 is above 1000 nM.

Consider `COc1cc(N)c(Cl)cc1C(=O)NCC1CCN(CCCCCC(=O)c2cccc3ccccc23)CC1` [Example 81, 4-amino-5-chloro-N-((1-(6-(1-naphthyl)-6-oxohexyl)piperidin-4-yl)methyl)-2-methoxybenzamide hydrochloride], for which the Ki in experiment [1] (setting [3]) turned out to be 0.5 nM. Further, the IC50 in experiment [2] (setting [4]) is above 1000 nM.

Regarding `CCN(CCCCN1CCC(CNC(=O)c2cc(Cl)c(N)cc2OC)CC1)Cc1ccc(Cl)c(Cl)c1` [Example 42, 4-amino-5-chloro-N-((1-(4-(N-(3,4-dichlorobenzyl)-N-ethylamino)butyl)piperidin-4-yl)methyl)-2-methoxybenzamide], the Ki in experiment [1] (setting [3]) amounted to 0.62 nM. In addition, in experiment [2] (setting [4]), the IC50 is above 1000 nM.

Take `CCn1cc(C(=O)CCCCCN2CCC(CNC(=O)c3cc(Cl)c(N)cc3OC)CC2)c2ccccc21` [Example 93, 4-amino-5-chloro-2-methoxy-N-((1-(6-(1-ethyl-1H-indol-3-yl)-6-oxohexyl)piperidin-4-yl)methyl)benzamide]: in experiment [1], the inhibitory constant (Ki) is 0.47 nM. Further, the half-maximal inhibitory concentration (IC50) in experiment [2] is above 1000 nM.

Turning to `COc1cc(N)c(Cl)cc1C(=O)NCC1CCN(CCCCCNCC2CCCCC2)CC1` [Example 11, 4-amino-5-chloro-N-((1-(5-(cyclohexylmethylamino)pentyl)piperidin-4-yl)methyl)-2-methoxybenzamide], in experiment [1] (setting [3]), the Ki amounted to 0.51 nM. Further, the half-maximal inhibitory concentration (IC50) in experiment [2] (setting [4]) is above 1000 nM.

`COc1ccc(C(=O)CCCCCN2CCC(CNC(=O)c3cc(Cl)c(N)cc3OC)CC2)cc1Cl` [Example 73, 4-amino-5-chloro-N-((1-(6-(3-chloro-4-methoxyphenyl)-6-oxohexyl)piperidin-4-yl)methyl)-2-methoxybenzamide]: the inhibition constant Ki in experiment [1] (setting [3]) turned out to be 1.8 nM. Also, the IC50 in experiment [2] (setting [4]) was above 1000 nM.

Take `COc1cc(N)c(Cl)cc1C(=O)NCC1CCN(CCCCCSCc2ccccc2)CC1` [Example 54, 4-amino-N-((1-(5-benzylthiopentyl)piperidin-4-yl)methyl)-5-chloro-2-methoxybenzamide]: the Ki was determined as 1.6 nM in experiment [1] (setting [3]) and 340 nM in experiment [2] (setting [5]).

For `COc1cc(N)c(Cl)cc1C(=O)NCC1CCN(CCCCCNCc2ccc3ccccc3c2)CC1` [Example 14, 4-amino-5-chloro-2-methoxy-N-((1-(5-(2-naphthylmethylamino)pentyl)piperidin-4-yl)methyl)benzamide], the Ki in experiment [1] (setting [3]) was 0.97 nM. Further, the 50% inhibitory concentration (IC50) in experiment [2] (setting [4]) is above 1000 nM.

As to `COc1cc(N)c(Cl)cc1C(=O)NCC1CCN(CCCCCOCc2ccccc2)CC1` [Example 53, 4-amino-N-((1-(5-benzyloxypentyl)piperidin-4-yl)methyl)-5-chloro-2-methoxybenzamide], the Ki in experiment [1] (setting [3]) was found to be 3.5 nM; in experiment [2] (setting [5]), 370 nM.

Consider `CCN(CCCCCCN1CCC(CNC(=O)c2cc(Cl)c(N)cc2OC)CC1)Cc1ccccc1` [Example 44, 4-amino-5-chloro-N-((1-(6-(N-ethyl-N-benzylamino)hexyl)piperidin-4-yl)methyl)-2-methoxy benzamide], for which the Ki in experiment [1] (setting [3]) turned out to be 0.67 nM. The IC50 in experiment [2] (setting [4]) is above 1000 nM.

With `CCN(CCCCCCN1CCC(CNC(=O)c2cc(Cl)c(N)cc2OC)CC1)Cc1ccc([N+](=O)[O-])cc1` [Example 47, 4-amino-5-chloro-N-((1-(6-(N-ethyl-N-(4-nitrobenzyl)amino)hexyl)piperidin-4-yl)methyl)-2-methoxybenzamide], the inhibition constant Ki in experiment [1] (setting [3]) was 2.7 nM. In addition, the IC50 in experiment [2] (setting [4]) is above 1000 nM.

With `COc1cc(N)c(Cl)cc1C(=O)NCC1CCN(CCCCCC(=O)c2cn(C)c3ccccc23)CC1` [Example 77, 4-amino-5-chloro-2-methoxy-N-((1-(6-(1-methyl-1H-indol-3-yl)-6-oxohexyl)piperidin-4-yl)methyl)benzamide], the inhibition constant Ki in experiment [1] (setting [3]) is 0.34 nM. In experiment [2] (setting [4]), the half-inhibitory concentration (IC50) is above 1000 nM.
